Each block holds one compound with its values, some of them ahead of it.
Experiment: solvent given as SMILES
[1] = in O=P(c1ccccc1)(c1ccccc1)c1ccccc1Oc1ccccc1P(=O)(c1ccccc1)c1ccccc1

Structure (SMILES): CC(C)(C)c1ccc(-c2ccc3c(-c4ccc(C(C)(C)C)c5ccccc45)cc4c5cc(-c6ccc(C(C)(C)C)c7ccccc67)ccc5c(-c5ccc(C(C)(C)C)c6ccccc56)cc4c3c2)c2ccccc12
emission maximum (in ClCCl): 405 nm

Structure (SMILES): Cc1cc(N2c3ccccc3[Si](c3ccccc3)(c3ccccc3)c3ccccc32)c(C)cc1-c1nc(-c2ccccc2)nc(-c2ccccc2)n1
emission maximum (in Cc1ccccc1): 465 nm
emission maximum [1]: 465 nm

Structure (SMILES): C(=C\c1nc2ccccc2[nH]1)/c1ccc(/C=C/c2nc3ccccc3[nH]2)cc1
emission maximum (in C1CCOC1): 428 nm
emission maximum (in CC#N): 427 nm
emission maximum (in CC(C)=O): 427 nm
emission maximum (in CN(C)C=O): 433 nm
emission maximum (in CO): 422 nm
emission maximum (in CS(C)=O): 439 nm

Structure (SMILES): CC(C)(C)c1ccc(-c2nc3ccccc3nc2-c2cc(-c3nc4ccccc4nc3-c3ccc(C(C)(C)C)cc3)cc(-n3c4ccccc4c4ccccc43)c2)cc1
emission maximum (in Cc1ccccc1): 437 nm

Structure (SMILES): Cc1nc2cccc(-c3nc4ccc([N+](=O)[O-])cc4[nH]3)c2c(=O)[nH]1
emission maximum (in CN(C)C=O): 450 nm

Structure (SMILES): F[B-]1(F)n2c(Nc3cccc4cccnc34)ccc2C(c2ccccc2)=C2C=CC(Cl)=[N+]21
emission maximum (in C1CCCCC1): 580 nm
emission maximum (in CC#N): 580 nm
emission maximum (in Cc1ccccc1): 586 nm
emission maximum (in ClC(Cl)Cl): 583 nm

Structure (SMILES): CCCCCCn1c2ccsc2c2sc3c(sc4c5sccc5n(CCCCCC)c43)c21
emission maximum (in ClCCl): 411 nm

Structure (SMILES): CCOC(=O)c1cc(C(=O)OCC)c2cc(NC(=O)C(F)(F)F)ccc2n1
emission maximum (in CCO): 436 nm

Structure (SMILES): Cc1c(C)c(-c2ccc(-c3cccnc3)cc2)c(C)c(C)c1B(c1c(C)c(C)c(-c2ccc(-c3cccnc3)cc2)c(C)c1C)c1c(C)c(C)c(-c2ccc(-c3cccnc3)cc2)c(C)c1C
emission maximum (in ClCCl): 404 nm

Structure (SMILES): CC(=O)c1c2c(c(C(C)=O)c3c1OC(CC(=O)O)O3)OCO2
emission maximum (in CC#N): 553 nm

Structure (SMILES): Nc1nc2ccccc2[n+]([O-])n1
emission maximum (in CC#N): 478 nm
emission maximum (in O): 521 nm

Structure (SMILES): c1ccc2c(c1)OP1(=NP3(=NP(Oc4ccc5ccc6cccc7ccc4c5c67)(Oc4ccc5ccc6cccc7ccc4c5c67)=N1)Oc1ccccc1-c1ccccc1O3)Oc1ccccc1-2
emission maximum (in ClCCl): 463 nm

Structure (SMILES): Cc1ccc(C2=C3C=C(I)C=[N+]3[B-](F)(F)n3cc(I)cc32)cc1
emission maximum (in C1CCCCC1): 567.5 nm
emission maximum (in CC#N): 573 nm
emission maximum (in CCO): 573 nm
emission maximum (in CCOC(C)=O): 569.5 nm
emission maximum (in CO): 572 nm
emission maximum (in OCC(F)(F)F): 567.5 nm

Structure (SMILES): FC(F)(F)c1ccc(/C2=C3N=C(C(c4ccccc4)=C/3c3ccccc3)/C(c3ccc(C(F)(F)F)cc3)=c3\[nH]/c(c(-c4ccccc4)c3-c3ccccc3)=C(/c3ccc(C(F)(F)F)cc3)C3=N/C(=C(/c4ccc(C(F)(F)F)cc4)c4[nH]c2c(-c2ccccc2)c4-c2ccccc2)C(c2ccccc2)=C3c2ccccc2)cc1
emission maximum (in ClCCl): 730 nm

Structure (SMILES): CCN(CC)c1ccc2cc(C#N)/c(=N\C(=O)c3ccc(C)cc3)oc2c1
emission maximum (in CCO): 530 nm
emission maximum (in ClCCl): 502 nm

Structure (SMILES): CCCC1(CCC)c2cc(-c3ccc4c(c3)C(CCC)(CCC)c3cc(C(C)(C)CC)ccc3-4)ccc2-c2ccc(-c3ccc4c(c3)C(CCC)(CCC)c3cc(C(C)(C)CC)ccc3-4)cc21
emission maximum (in C1CCCCC1): 400 nm

Structure (SMILES): O=C1CC(=O)Nc2cc(Cl)ccc2N1
emission maximum (in CS(C)=O): 336 nm

Structure (SMILES): CC1(C)C(/C=C/c2cc3ccc(O)cc3oc2=O)=[N+](CCCS(=O)(=O)[O-])c2ccc(S(=O)(=O)O)cc21
emission maximum (in CCO): 648 nm
emission maximum (in CS(C)=O): 604 nm
emission maximum (in O): 636 nm

Structure (SMILES): COc1ccc(-c2cc(-c3ccc(OC)cc3)c3c(N)nc(N4CCCC4)c(C#N)c3n2)cc1
emission maximum (in CC#N): 516 nm
emission maximum (in CC(C)=O): 513 nm
emission maximum (in CC(C)O): 507 nm
emission maximum (in CO): 515 nm
emission maximum (in ClC(Cl)Cl): 500 nm
emission maximum (in ClCCl): 506 nm
emission maximum (in c1ccccc1): 502 nm

Structure (SMILES): C[Si]1(C)O[Si](C)(C)c2cc3cc4c(cc3cc21)C(=O)c1cc2cc3c(cc2cc1C4=O)[Si](C)(C)O[Si]3(C)C
emission maximum (in ClC(Cl)Cl): 437 nm

Structure (SMILES): CN(C)c1ccc(C#Cc2ccc(C#N)cc2)cc1
emission maximum (in C1CCCCC1): 383 nm
emission maximum (in C1CCOC1): 505 nm
emission maximum (in C1COCCO1): 446.01 nm
emission maximum (in CC1CCCO1): 468.01 nm
emission maximum (in CC#N): 571 nm
emission maximum (in CC(C)=O): 543.01 nm
emission maximum (in CC(C)CC(C)(C)C): 380 nm
emission maximum (in CC(C)O): 510 nm
emission maximum (in CCCCCCCCCCCCCCCC): 385 nm
emission maximum (in CCCCCCCCCCCCCCCCCl): 423.6 nm
emission maximum (in CCOC(C)=O): 482 nm
emission maximum (in CCOCC): 453 nm
emission maximum (in CN(C)C=O): 566 nm
emission maximum (in CO): 547.02 nm
emission maximum (in CS(C)=O): 573 nm
emission maximum (in Cc1ccccc1): 427 nm

Structure (SMILES): O=S(=O)(c1cccc(N2c3ccccc3Sc3ccccc32)c1)c1cccc(N2c3ccccc3Sc3ccccc32)c1
emission maximum (in C1CCOC1): 596 nm
emission maximum (in CCCCC(CC)n1c2ccc(-n3c4ccccc4c4ccccc43)cc2c2cc(-n3c4ccccc4c4ccccc43)ccc21): 554.57 nm
emission maximum (in Cc1ccccc1): 561 nm
emission maximum (in ClC(Cl)Cl): 579 nm
emission maximum (in c1cc(-n2c3ccccc3c3ccccc32)cc(-n2c3ccccc3c3ccccc32)c1): 550.83 nm

Structure (SMILES): CCC1(CC)c2cc(/C=C/c3ccc(/C=C/c4ccc5c(c4)C(CC)(CC)c4cc(N6c7ccccc7Sc7ccccc76)ccc4-5)cc3)ccc2-c2ccc(N3c4ccccc4Sc4ccccc43)cc21
emission maximum (in C1CCOC1): 434 nm
emission maximum (in CC#N): 457 nm
emission maximum (in CCCCCC): 455 nm
emission maximum (in Cc1ccccc1): 462 nm
emission maximum (in ClCCl): 435 nm

Structure (SMILES): CC1(C)c2ccccc2N(c2ccccc2)c2ccc(-c3ccc(S(=O)(=O)c4ccc(-c5ccc6c(c5)C(C)(C)c5ccccc5N6c5ccccc5)cc4)cc3)cc21
emission maximum (in Cc1ccccc1): 419.03 nm
emission maximum [1]: 439 nm

Further lines, results first:

emission maximum (in C1COCCO1): 436 nm
emission maximum (in CC#N): 492 nm
emission maximum (in CCCCCCC): 382 nm
emission maximum (in CO): 496 nm
Structure (SMILES): C(/C=C/c1ccc(-n2c3ccccc3c3ccccc32)cc1)=C\c1ccncc1

emission maximum (in CC#N): 414 nm
Structure (SMILES): CCOC(=O)c1c2c3c(ccc(Cl)c3c3cc4ccccc4cc13)N(C)C2=O

emission maximum (in ClC(Cl)Cl): 464 nm
Structure (SMILES): CCCCCCc1ccc(-n2c3c4cccc(OC)c4nc(-c4ccc(C)cc4)c3c3c2c2c(-c4ccc(C)cc4)nc4c(OC)cccc4c2n3-c2ccc(CCCCCC)cc2)cc1

emission maximum (in ClCCl): 425 nm
Structure (SMILES): c1ccc(C2c3ccc4ccc5ccccc5c4c3-c3c2ccc2ccc4ccccc4c32)cc1

emission maximum (in CO): 811 nm
Structure (SMILES): CC1(C)C(/C=C/C2=C(c3ccc(C(=O)O)cc3)C(=C/C=C3/N(CCCS(=O)(=O)[O-])c4ccc5ccccc5c4C3(C)C)/CCC2)=[N+](CCCS(=O)(=O)[O-])c2ccc3ccccc3c21

emission maximum (in CC#N): 426 nm
Structure (SMILES): C(=C\c1cc[n+](Cc2ccccc2)cc1)/c1cc[n+](Cc2ccccc2)cc1

emission maximum (in ClCCl): 434 nm
Structure (SMILES): CC(C)(C)c1cc(-c2ccc(-c3cccs3)s2)c2c(c1)c1cc(C(C)(C)C)cc(-c3ccc(-c4cccs4)s3)c1n2-c1ccc(-c2cccs2)s1

emission maximum (in C1COCCO1): 549 nm
emission maximum (in CC#N): 661 nm
emission maximum (in ClCCl): 615 nm
Structure (SMILES): CCCCN(CCCC)c1ccc(/C=C/c2ccc3nc(/C=C/c4ccc(N(C)C)cc4)c(-c4ccccc4)nc3c2)cc1

emission maximum (in C1COCCO1): 326 nm
emission maximum (in CC#N): 325 nm
emission maximum (in CCO): 325 nm
emission maximum (in ClC(Cl)Cl): 325 nm
emission maximum (in O): 324 nm
emission maximum (in OCCO): 325 nm
emission maximum (in [2H]O[2H]): 324 nm
Structure (SMILES): NC(=O)Cc1cccc2ccccc12

emission maximum (in ClCCl): 494 nm
Structure (SMILES): CCN(CC)c1ccc2cc(-c3nc4cc(C(=O)Nc5cccc(OC)c5)ccc4o3)c(=O)oc2c1

emission maximum (in ClC(Cl)Cl): 464.8 nm
Structure (SMILES): Cc1cccc(C2=Cc3c4ccccc4cc[n+]3[B-](F)(F)O2)c1

emission maximum (in CO): 447 nm
Structure (SMILES): Cc1ccc(-c2nc(-c3ccc(C#N)cc3)[nH]c2-c2ccc(C)cc2)cc1

emission maximum (in CO): 574 nm
Structure (SMILES): COC(=O)COc1ccc(/C=C/C2=[N+]3C(=C(c4ccccc4)c4c(C)cc(C)n4[B-]3(F)F)C(C)=C2)cc1

emission maximum (in C1CCOC1): 408 nm
Structure (SMILES): c1ccc(-n2c3c(c4c2-c2ccccc2C42c4ccccc4-c4ccccc42)C2(c4ccccc4-c4ccccc42)c2ccccc2-3)cc1

emission maximum (in ClCCl): 562 nm
Structure (SMILES): COc1ccc(N2c3sc4ccccc4c3Sc3sc4ccccc4c32)cc1

emission maximum (in CC#N): 654 nm
emission maximum (in CCO): 650 nm
emission maximum (in ClCCl): 645 nm
emission maximum (in O): 660 nm
Structure (SMILES): C=CCNc1ccc2c(ccc3oc4cc(=[N+](C)C)ccc-4nc32)c1

emission maximum (in CC#N): 478 nm
Structure (SMILES): CC(C)c1ccc(-c2nc(-c3ccccc3)c3ccccn23)cc1

emission maximum (in ClC(Cl)Cl): 519 nm
Structure (SMILES): N#CC1=CC(Br)=CC(C#N)=P1(c1ccccc1)c1ccccc1

emission maximum (in C1CCOC1): 473 nm
Structure (SMILES): N#Cc1c(N2CCCCC2)cc(-c2ccc3ccc4cccc5ccc2c3c45)c2c1C(=O)c1ccccc1-2

emission maximum (in ClCCl): 401 nm
Structure (SMILES): C(=C\c1ccncn1)/c1ccc(-c2ccco2)cc1

emission maximum (in ClC(Cl)Cl): 517.73 nm
Structure (SMILES): CC1=CC(C)=[N+]2C1=C(c1ccc(I)cc1)c1c(C)cc(C)n1[B-]2(F)F

emission maximum (in C1CCOC1): 525 nm
emission maximum (in CC#N): 599 nm
emission maximum (in CCCCCCC): 445 nm
emission maximum (in CS(C)=O): 609 nm
emission maximum (in ClCCl): 563 nm
Structure (SMILES): C(=C\c1ccncn1)/c1ccc(-c2ccc(N(c3ccccc3)c3ccccc3)cc2)cc1

emission maximum (in CC#N): 432 nm
Structure (SMILES): c1ccc2c(c1)ccc1oc3ccc4cc5oc6ccc7ccc8oc9ccc%10ccccc%10c9c8c7c6c5cc4c3c12

emission maximum (in C1CCCCC1): 638 nm
Structure (SMILES): COc1ccc2c3ccc(OC)cc3n(-c3cc(Cl)c([C](c4c(Cl)cc(Cl)cc4Cl)c4c(Cl)cc(Cl)cc4Cl)c(Cl)c3)c2c1

emission maximum (in C1COCCO1): 364 nm
Structure (SMILES): c1ccc(-c2ccc(-c3cc(-c4ccc(-c5ccccc5)cc4)cc(-c4ccc(-c5ccccc5)cc4)c3)cc2)cc1

emission maximum (in C1CCCCC1): 327 nm
Structure (SMILES): COc1ccc([Si](C)(C)C)c2ccccc12

emission maximum (in CO): 384 nm
Structure (SMILES): N[C@@H](Cn1nnc2cc(-c3ccc(-c4ccsc4)cc3)ccc21)C(=O)O

emission maximum (in ClCCl): 455 nm
Structure (SMILES): O=c1oc2ccccc2c2c1c(=O)oc1cc(O)ccc12

emission maximum (in C1CCOC1): 760 nm
Structure (SMILES): COc1ccccc1C1=[N+]2C(=Cc3c4cc5ccccc5cc4c(-c4ccccc4OC)n3[B-]2(F)F)c2cc3ccccc3cc21

emission maximum (in C1CCCCC1): 363.77 nm
Structure (SMILES): COc1ccc(-c2ccc(OC)cc2)cc1

Reference: the Deep4Chem optical property database
